# Patent publication US20260355217A1, “HPK1 INHIBITOR, PREPARATION METHOD THEREFOR, AND USE THEREOF” (Beijing Earthwise Technology Co., Ltd., priority 2022, published 2026)
# Columns and labels:
# [1] = tested on: human Pan T cells (IL-2 release); test: Human Pan T Cell IL-2 ELISA; assay type: cell-based
# Procedure: Assay Example 4 Human Pan T Cell IL-2 ELISA
# A compound was dissolved in DMSO to 10 mM, and then diluted three-fold with DMSO to 9 dosages in a 96-well plate. Then, 10 μL of the diluted compound sample was transferred to a 96-well plate with 90 μL of cell culture medium, and the plate was shaken for 5 minutes. Then, 5 μL of the diluted compound sample was transferred to a 96-well plate with 120 μL of cell culture medium, and the plate was shaken for 5 minutes. According to the experimental design diagram, 50 μL of the diluted compound sample was transferred to a cell plate. Final concentrations of the compound in this assay were 10000.00, 5000, 2500, 1250, 625, 312.5, 156.25, 78.125 and 39.063 nM.
# The assay was conducted in a 96-well plate. On the first day of the assay, Anti-CD3 was added to the 96-well plate and incubated in a 4 °C refrigerator overnight. On the second day of the assay, human Pan T cells were recovered, centrifuged and counted. The cell density was adjusted to 1*10^6 cells/ml. Then, 100 μL of cells were added to the 96-well plate washed with PBS and added with Anti-CD3; according to the experimental design diagram, 50 μL of diluted Anti-CD28 and 50 μL of the diluted compound were added to each well, centrifuged, and the cell plate was placed and incubated in an incubator for 48 hours; after 48 hours, the plate was centrifuged and the supernatant was collected for IL-2 ELISA.
# The signal value of light absorption was converted into a multiple. Multiple=sample value/the average value of control wells. The average value of control wells refers to the value measured in wells with DMSO added. EC50 values were calculated by XLFit (version 5.3.1.3) in Excel. Equation: Y=Bottom+(Top−Bottom)/(1+(EC50/X)^HillSlope).
# [2] = target: T1, pSLP76 (Phospho-SLP-76 (Ser376)), Jurkat E6-1 cells (Homo sapiens, UniProt Q92918); test: Phospho-SLP-76 (Ser376) HTRF Assay in Jurkat E6-1 cells; assay type: cell-based; conditions: compound 4 hours, then anti-CD3 20 minutes
# T1 construct: read-out phospho-SLP-76 (Ser376) HTRF
# Procedure: Assay Example 3 Phospho-SLP-76 (Ser376) HTRF Assay
# A compound was dissolved in DMSO to 10 mM, and then diluted three-fold with DMSO to 10 dosages in a 96-well plate. Then, 3 μL of the diluted compound sample was transferred to a 96-well plate with 97 μL of cell culture medium, and the plate was shaken for 5 minutes. According to the experimental design diagram, 7.5 μL of the diluted compound sample was transferred to a cell plate. Final concentrations of the compound in this assay were 10000.00, 3333.33, 1111.11, 370.37, 123.46, 41.15, 13.72, 4.57, 1.52 and 0.51 nM.
# In this assay, the density of Jurkat E6-1 cells was maintained between 3*10^5 to 3*10^6 cells/mL. The cell culture was replaced with fresh culture medium every 2 to 3 days (depending on the cell density). 30 μL of Jurkat E6-1 (300,000 cells) was added to a 96-well plate and incubated in a 37 °C incubator for 1 hour. Then, according to the experimental design diagram, compounds (6×, 7.5 μL) were added to treat the cells for 4 hours, respectively. After 4 hours, purified anti-human anti-CD3 antibodies (6×, 7.5 μL) were added to treat the cells for 20 minutes. After 20 minutes, 15 μL of cell lysis buffer (4×) was added, and the cells were lysed at 25 °C with shaking (250 rpm) for 1 hour. Then, according to the experimental design diagram, 16 μL of cell lysate was transferred to a 384-well plate using a pipette. After the transfer, 4 μL of antibody detection mixture was added. After being placed at room temperature overnight, the plate was read by EnVision multi-function microplate reader to read the FRET signal (the ratio of HTRF 665/615 was calculated from the readings at 665 nm and 615 nm).
# The ratio of the signal at 665 nm to the signal at 615 nm was converted to the percentage of inhibition. Inhibition %=(maximum value−sample value)/(maximum value−minimum value)×100. The minimum value refers to the signal value of a well without anti-CD3 antibody stimulation during the treatment of cells, and the maximum value refers to the signal value of a well with anti-CD3 antibody stimulation but without the compound during the treatment of cells. IC50 values were calculated by XLFit (version 5.3.1.3) in excel. Equation: Y=Bottom+(Top−Bottom)/(1+(IC50/X)^HillSlope).
# [3] = Anti-CD3/Anti-CD28, 48 hours, IL-2 ELISA
# [4] = Homo sapiens, T-cell, 48 h, Anti-CD3/Anti-CD28, IL-2 ELISA
# [5] = Homo sapiens, T-cell, 48 h, Anti-CD3/Anti-CD28 stimulation, IL-2 ELISA of supernatant
# [6] = Anti-CD3/Anti-CD28 stimulation, 48 hours, IL-2 ELISA of supernatant
# T1 sequence (Q92918 whole entry): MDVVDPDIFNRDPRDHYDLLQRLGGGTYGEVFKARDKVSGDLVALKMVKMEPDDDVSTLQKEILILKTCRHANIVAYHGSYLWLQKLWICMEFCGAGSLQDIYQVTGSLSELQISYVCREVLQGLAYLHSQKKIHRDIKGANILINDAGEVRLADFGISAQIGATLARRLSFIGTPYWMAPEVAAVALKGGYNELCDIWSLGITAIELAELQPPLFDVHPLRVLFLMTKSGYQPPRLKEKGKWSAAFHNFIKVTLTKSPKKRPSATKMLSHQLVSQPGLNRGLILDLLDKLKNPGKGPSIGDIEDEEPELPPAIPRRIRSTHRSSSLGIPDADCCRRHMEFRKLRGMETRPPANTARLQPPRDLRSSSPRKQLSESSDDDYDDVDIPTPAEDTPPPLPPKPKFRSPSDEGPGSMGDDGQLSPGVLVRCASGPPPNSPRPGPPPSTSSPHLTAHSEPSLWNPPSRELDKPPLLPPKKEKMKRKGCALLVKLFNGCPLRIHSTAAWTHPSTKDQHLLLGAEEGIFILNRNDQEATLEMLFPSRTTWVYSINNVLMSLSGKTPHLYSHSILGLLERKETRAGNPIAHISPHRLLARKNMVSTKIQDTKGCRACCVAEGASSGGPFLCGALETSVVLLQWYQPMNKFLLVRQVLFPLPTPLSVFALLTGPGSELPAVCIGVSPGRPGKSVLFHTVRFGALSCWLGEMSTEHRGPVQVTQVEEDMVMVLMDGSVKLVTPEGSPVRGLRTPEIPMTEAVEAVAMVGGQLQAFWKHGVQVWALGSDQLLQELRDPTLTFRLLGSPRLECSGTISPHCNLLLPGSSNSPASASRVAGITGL
compound,measurement,setting,value
"COC1CCCn2c(-c3cc4c(c5c3CNC5=O)Nc3ccc(N5CCOCC5)nc3C4(C)C)cnc21 (single isomer, unassigned) [Example 25]",EC50,[1]; [3],33.4 nM
"Cc1ccn2c(-c3cc4c(c5c3CNC5=O)Nc3ccc(N5CCO[C@H](C(C)(C)O)C5)cc3C4(C)C)cnc2c1F (single isomer, unassigned) [Example 89]",EC50,[1]; [4],6.64 nM
"CO[C@@H]1CCCn2c(-c3cc4c(c5c3CNC5=O)Nc3ccc(N5CCOCC5)cc3C4(C)C)cnc21 (single isomer, unassigned) [Example 91]",EC50,[1]; [4],5.96 nM
"CC1(C)c2cc(N3CCO[C@H](C(C)(C)O)C3)ccc2Nc2c1cc(-c1cnc3cc(F)ccn13)c1c2C(=O)NC1 (single isomer, unassigned) [Example 94]",EC50,[1]; [4],4.84 nM
"Cc1ccc2c(-c3cc4c(c5c3CNC5=O)Nc3ccc(N5CCO[C@H](C(C)(C)O)C5)cc3C4(C)C)cnn2c1 (single isomer, unassigned) [Example 96]",EC50,[1]; [4],5.91 nM
"Cc1ccn2c(-c3cc4c(c5c3CNC5=O)Nc3ccc(N5CCOC(C(C)(C)O)C5)cc3C4(C)C)cnc2c1 (single isomer, unassigned) [Example 106]",EC50,[1]; [3],18.3 nM
"COC1CCCn2c(-c3cc4c(c5c3CNC5=O)Nc3ccc(N5CCOC(C(C)(C)O)C5)cc3C4(C)C)cnc21 (single isomer, unassigned) [Example 132]",EC50,[1]; [3],10.1 nM
"CCO[C@@H]1CCCn2c(-c3cc4c(c5c3CNC5=O)Nc3ccc(N5CCOCC5)cc3C4(C)C)cnc21 (single isomer, unassigned) [Example 137]",EC50,[1]; [4],26.8 nM
"CO[C@H]1CCn2c(-c3cc4c(c5c3CNC5=O)Nc3ccc(N5CCO[C@@H](C(C)(C)O)C5)cc3C4(C)C)cnc2C1 (single isomer, unassigned) [Example 166]",EC50,[1]; [5],15 nM
"CC[C@@]1(C)c2cc(N3CCOCC3)ccc2Nc2c1cc(-c1cnc3n1CCC[C@@H]3OC)c1c2C(=O)NC1 (single isomer, unassigned) [Example 167]",EC50,[1]; [6],38 nM
"CC[C@@]1(C)c2cc(N3CCOCC3)ccc2Nc2c1cc(-c1cnc3n1CCC[C@@H]3OC)c1c2C(=O)NC1 (single isomer, unassigned) [Example 168]",EC50,[1]; [6],17 nM
"CO[C@@H]1CCn2c(-c3cc4c(c5c3CNC5=O)Nc3ccc(N5CCO[C@@H](C(C)(C)O)C5)cc3C4(C)C)cnc2C1 (single isomer, unassigned) [Example 176]",EC50,[1]; [5],31 nM
"COC1CCCn2c(-c3cc4c(c5c3CNC5=O)Nc3ccc(N5CCOCC5C)cc3C4(C)C)cnc21 (single isomer, unassigned) [Example 180]",EC50,[1]; [6],27 nM
"COC1CCCn2c(-c3cc4c(c5c3CNC5=O)Nc3ccc(N5CCOCC5C)cc3C4(C)C)cnc21 (single isomer, unassigned) [Example 181]",EC50,[1]; [6],26 nM
"CC1(C)c2cc(N3CCOCC3)ccc2Nc2c1cc(-c1cnc3n1CCC[C@@H]3OC1COC1)c1c2C(=O)NC1 (single isomer, unassigned) [Example 221]",EC50,[1]; [5],98 nM
Cc1ccn2c(-c3cc4c(c5c3CNC5=O)Nc3ccc(N5CCO[C@H](C(C)(C)O)C5)cc3C4(C)C)cnc2c1 (stereo in doubt) [Example 107],EC50,[1]; [4],11.9 nM
CO[C@H]1CCCn2c(-c3cc4c(c5c3CNC5=O)Nc3ccc(N5CC6CCC5CO6)cc3C4(C)C)cnc21 (stereo in doubt) [Example 204],EC50,[1]; [5],15 nM
CC1(C)c2cc(N3CCOCC3)ccc2Nc2c1cc(-c1cnc3c(Cl)cccn13)c1cc[nH]c(=O)c21 [Example 1],IC50,[2],121 nM
same,EC50,[1]; [4],3.67 nM
COc1cccn2c(-c3cc4c(c5c(=O)[nH]ccc35)Nc3ccc(N5CCOC(C(C)(C)O)C5)cc3C4(C)C)cnc12 (stereo not shown) [Example 2],IC50,[2],64 nM
COc1cccn2c(-c3cc4c(c5c(=O)[nH]ccc35)Nc3ccc(N5CCOCC5)cc3C4(C)C)cnc12 [Example 3],IC50,[2],57.5 nM
CC1(C)c2cc(N3CCOCC3)ccc2Nc2c1cc(-c1cnn3cccnc13)c1cc[nH]c(=O)c21 [Example 4],IC50,[2],38.1 nM
Cc1ccn2c(-c3cc4c(c5c(=O)[nH]ccc35)Nc3ccc(N5CCOC(C(C)(C)O)C5)cc3C4(C)C)cnc2c1F (stereo not shown) [Example 6],IC50,[2],164 nM
Cc1ccc2c(-c3cc4c(c5c(=O)[nH]ccc35)Nc3ccc(N5CCOC(C(C)(C)O)C5)cc3C4(C)C)cnn2c1 (stereo not shown) [Example 7],IC50,[2],487 nM
COc1cccc2c(-c3cc4c(c5c(=O)[nH]ccc35)Nc3ccc(N5CCOCC5)cc3C4(C)C)cnn12 [Example 8],IC50,[2],103 nM
Cc1ccn2c(-c3cc4c(c5c3CNC5=O)Nc3ccc(N5CCOC(C(C)(C)O)C5)cc3C4(C)C)cnc2c1F (stereo not shown) [Example 9],IC50,[2],57.8 nM
COc1cccn2c(-c3cc4c(c5c3CNC5=O)Nc3ccc(N5CCOCC5)cc3C4(C)C)cnc12 [Example 10],IC50,[2],42.7 nM
same,EC50,[1]; [4],4.88 nM
Cc1ccn2c(-c3cc4c(c5c3CNC5=O)Nc3ccc(N5CCOCC5)cc3C4(C)C)cnc2c1F [Example 11],IC50,[2],73.3 nM
CC1(C)c2cc(N3CCOCC3)ccc2Nc2c1cc(-c1cnc3cccnn13)c1c2C(=O)NC1 [Example 12],IC50,[2],25.9 nM
COc1cccn2c(-c3cc4c(c5c3CNC5=O)Nc3cnc(N5CCOCC5)cc3C4(C)C)cnc12 [Example 14],IC50,[2],197 nM
COc1cccc2c(-c3nc4c(c5c3CCNC5=O)Nc3ccc(N5CCOCC5)cc3C4(C)C)cnn12 [Example 15],IC50,[2],72.2 nM
same,EC50,[1]; [3],3.95 nM
CC1(C)c2cc(N3CCOCC3)ccc2Nc2c1cc(-c1cnn3cccnc13)c1c2C(=O)NC1 [Example 16],IC50,[2],31.6 nM
CC1(C)c2cc(N3CCOCC3)ccc2Nc2c1cc(-c1cnn3c(C#N)cccc13)c1c2C(=O)NC1 [Example 17],IC50,[2],56.9 nM
COc1cccc2c(-c3cc4c(c5c3CNC5=O)Nc3ccc(N5CCOCC5)cc3C4(C)C)cnn12 [Example 18],IC50,[2],66 nM
COc1cccn2c(-c3cc4c(c5c3CNC5=O)Nc3ccc(N5CCOCC5)nc3C4(C)C)cnc12 [Example 20],IC50,[2],83.6 nM
COc1cccc2c(-c3cc4c(c5c3CNC5=O)Nc3ncc(N5CCOCC5)cc3C4(C)C)cnn12 [Example 21],IC50,[2],37 nM
COc1ccnn2c(-c3cc4c(c5c3CNC5=O)Nc3ccc(N5CCOCC5)cc3C4(C)C)cnc12 [Example 31],IC50,[2],58.8 nM
Cc1ccnn2c(-c3cc4c(c5c3CNC5=O)Nc3ccc(N5CCOC(C(C)(C)O)C5)cc3C4(C)C)cnc12 (stereo not shown) [Example 33],EC50,[1]; [4],4.95 nM
Cn1ccn2c(-c3cc4c(c5c3CNC5=O)Nc3ccc(N5CCOCC5)cc3C4(C)C)cnc2c1=O [Example 41],IC50,[2],13.5 nM
COc1ccnc2c(-c3cc4c(c5c3CNC5=O)Nc3ccc(N5CCOCC5)cc3C4(C)C)cnn12 [Example 66],EC50,[1]; [4],7.83 nM
CO[C@H]1CCCn2c(-c3cc4c(c5c3CNC5=O)Nc3ccc(N5CC6CCC(C5)O6)cc3C4(C)C)cnc21 [Example 196],EC50,[1]; [5],27 nM
